{"source": "patent US7332501B2", "about": "“Indol-3-yl-carbonyl-spiro-piperidine derivatives as V1a receptor antagonists” (Hoffmann-La Roche Inc., priority 2005, dated 2008)", "note": "Where a name gives a salt, the structure may show the parent alone.", "data": [{"target": "T1, human V1a receptor (Homo sapiens, UniProt P37288)", "T1 construct": "expressed in transfected cells; host or cells: HEK293 cells, transiently transfected; cell membranes", "T1 sequence (P37288 whole entry)": "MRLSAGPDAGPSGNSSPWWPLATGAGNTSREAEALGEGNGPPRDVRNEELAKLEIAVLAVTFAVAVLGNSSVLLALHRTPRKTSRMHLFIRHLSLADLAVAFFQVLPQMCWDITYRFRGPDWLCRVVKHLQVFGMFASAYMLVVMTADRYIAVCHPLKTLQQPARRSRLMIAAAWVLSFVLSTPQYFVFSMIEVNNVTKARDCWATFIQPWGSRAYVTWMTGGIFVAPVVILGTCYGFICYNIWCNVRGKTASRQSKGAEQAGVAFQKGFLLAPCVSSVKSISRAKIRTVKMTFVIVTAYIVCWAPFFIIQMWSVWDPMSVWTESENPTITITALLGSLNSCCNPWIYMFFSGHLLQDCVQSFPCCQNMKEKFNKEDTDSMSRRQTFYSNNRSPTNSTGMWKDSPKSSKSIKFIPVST", "experiment": "human V1a receptor binding (3H-Vasopressin SPA, HEK293 membranes)", "conditions": "displacement of 4 nM 3H-Vasopressin, membranes of HEK293 cells transiently transfected with human V1a receptor; Ki from IC50 by Cheng-Prussoff", "procedure": "The human V1a receptor was cloned by RT-PCR from total human liver RNA. The coding sequence was subcloned in an expression vector after sequencing to confirm the identity of the amplified sequence. […] Cell membranes were prepared from HEK293 cells transiently transfected with the expression vector and grown in 20 liter fermenters with the following protocol.\n50 g cells are resuspended in 30 ml freshly prepared ice cold Lysis buffer (50 mM HEPES, 1 mM EDTA, 10 mM MgCl2 adjusted to pH=7.4+complete cocktail of protease inhibitor (Roche Diagnostics)). The cells are homogenized with Polytron for 1 min and sonicated on ice for 2×2 minutes at 80% intensity (Vibracell sonicator). The preparation is centrifuged 20 min at 500 g at 4° C., the pellet is discarded and the supernatant centrifuged 1 hour at 43,000 g at 4° C. (19,000 rpm). The pellet is resuspended in 12.5 ml Lysis buffer+12.5 ml Sucrose 20% and homogenized using a Polytron for 1-2 min. The protein concentration is determined by the Bradford method and aliquots are stored at −80° C. until use. For binding studies 60 mg Yttrium silicate SPA beads (Amersham) are mixed with an aliquot of membrane in binding buffer (50 mM Tris, 120 mM NaCl, 5 mM KCl, 2 mM CaCl2, 10 mM MgCl2) for 15 minutes with mixing. 50 ul of bead/membrane mixture is then added to each well of a 96 well plate, followed by 50 ul of 4 nM 3H-Vasopressin (American Radiolabeled Chemicals). For total binding measurement 100 ul of binding buffer are added to the respective wells, for non-specific binding 100 ul of […] cold vasopressin and for compound testing 100 ul of a serial dilution of each compound in 2% DMSO. The plate is incubated 1 h at room temperature, centrifuged 1 min at 1000 g and counted on a Packard Top-Count. Non-specific binding counts are subtracted from each well and data is normalized to the maximum specific binding set at 100%. To calculate an IC 50 the curve is fitted using a non-linear regression model (XLfit), and the Ki is calculated using the Cheng-Prussoff equation.", "units": {"Ki": "nM"}, "values": [{"smiles": "O=C1OC2(CCN(C(=O)c3c4n(c5cc(Cl)ccc35)CCNC4=O)CC2)c2ccc(F)cc21", "note": "[Example 176, 1′-[(7-Chloro-1-oxo-1,2,3,4-tetrahydropyrazino[1,2-a]indol-10-yl)carbonyl]-5-fluoro-3H-spiro[2-benzofuran-1,4′-piperidin]-3-one]", "Ki": 14.8}, {"smiles": "Cc1c(C(=O)N2CCC3(CC2)OC(=O)c2cc4c(cc23)OCO4)c2ccccc2n1Cc1ccccc1", "note": "[Example 34, 1′-[(1-benzyl-2-methyl-1H-indol-3-yl)carbonyl]-7H-spiro[furo[3,4-f][1,3]benzodioxole-5,4′-piperidin]-7-one]", "Ki": 2.1}, {"smiles": "Cc1c(C(=O)N2CCC3(CC2)OCc2ccccc23)c2ccccc2n1Cc1cc(F)cc(F)c1", "note": "[Example 52]", "Ki": 2.1}, {"smiles": "O=C1OC2(CCN(C(=O)c3cn(C(=O)c4cc(F)cc(F)c4)c4cc(Cl)ccc34)CC2)c2ccccc21", "note": "[Example 130, 1′-{[6-Chloro-1-(3,5-difluorobenzoyl)-1H-indol-3-yl]carbonyl}-3H-spiro[2-benzofuran-1,4′-piperidin]-3-one]", "Ki": 11.1}, {"smiles": "Cc1nc(Cn2cc(C(=O)N3CCC4(CC3)OCc3ccccc34)c3ccc(Cl)cc32)c(C)o1", "note": "[Example 242]", "Ki": 2.2}, {"smiles": "CN(C)CCn1cc(C(=O)N2CCC3(CC2)OC(=O)c2cc(F)ccc23)c2ccc(Cl)cc21", "note": "[Example 111, 1′-({6-Chloro-1-[2-(dimethylamino)ethyl]-1H-indol-3-yl}carbonyl)-5-fluoro-3H-spiro[2-benzofuran-1,4′-piperidin]-3-one]", "Ki": 2.4}, {"smiles": "O=C1OC2(CCN(C(=O)c3cn(Cc4cncnc4)c4cc(Cl)ccc34)CC2)c2ccc(F)cc21", "note": "[Example 174, 1′-{[6-Chloro-1-(pyrimidin-5-ylmethyl)-1H-indol-3-yl]carbonyl}-5-fluoro-3H-spiro[2-benzofuran-1,4′-piperidin]-3-one]", "Ki": 2.6}, {"smiles": "Cc1c(C(=O)N2CCC3(CC2)OCc2ccccc23)c2ccccc2n1CC1CCCCC1", "note": "[Example 46, 1′-{[1-(cyclohexylmethyl)-2-methyl-1H-indol-3-yl]carbonyl}-3H-spiro[2-benzofuran-1,4′-piperidine]]", "Ki": 0.8}, {"smiles": "O=C1OC2(CCN(C(=O)c3cn(Cc4ccncc4)c4cc(Cl)ccc34)CC2)c2ccccc21", "note": "[Example 168, 1′-{[6-Chloro-1-(pyridin-4-ylmethyl)-1H-indol-3-yl]carbonyl}-3H-spiro[2-benzofuran-1,4′-piperidin]-3-one]", "Ki": 2.4}, {"smiles": "O=C(c1cn(CCCN2CCOCC2)c2cc(Cl)ccc12)N1CCC2(CC1)OCc1ccccc12", "note": "[Example 257, 1′-{[6-Chloro-1-(3-morpholin-4-ylpropyl)-1H-indol-3-yl]carbonyl}-3H-spiro[2-benzofuran-1,4′-piperidine]]", "Ki": 3.1}, {"smiles": "O=C1OC2(CCN(C(=O)c3cn(CC4CNCCO4)c4cc(Cl)ccc34)CC2)c2ccc(F)cc21", "note": "(stereo not drawn) [Example 200, 1′-{[6-Chloro-1-(morpholin-2-ylmethyl)-1H-indol-3-yl]carbonyl}-5-fluoro-3H-spiro[2-benzofuran-1,4′-piperidin]-3-one dihydrochloride]", "Ki": 5.8}, {"smiles": "O=C(Cn1cc(C(=O)N2CCC3(CC2)OC(=O)c2cc(F)ccc23)c2ccc(Cl)cc21)c1cccc(F)c1", "note": "[Example 144, 1′-({6-Chloro-1-[2-(3-fluorophenyl)-2-oxoethyl]-1H-indol-3-yl}carbonyl)-5-fluoro-3H-spiro[2-benzofuran-1,4′-piperidin]-3-one]", "Ki": 2}, {"smiles": "CN(C)C(=O)Cn1cc(C(=O)N2CCC3(CC2)OC(=O)c2cc(F)ccc23)c2ccc(Cl)cc21", "note": "[Example 110, 2-{6-Chloro-3-[(5-fluoro-3-oxo-1′H,3H-spiro[2-benzofuran-1,4′-piperidin]-1′-yl)carbonyl]-1H-indol-1-yl}-N,N-dimethylacetamide]", "Ki": 0.8}, {"smiles": "O=C(c1c[nH]c2cc(Cl)ccc12)N1CCC2(CC1)CNc1ccccc12", "note": "[Example 8, 1′-[(6-chloro-1H-indol-3-yl)carbonyl]-1,2-dihydrospiro[indole-3,4′-piperidine]]", "Ki": 27.2}, {"smiles": "O=C1OC2(CCN(C(=O)c3cn(Cc4cccc(F)c4)c4cc(Cl)ccc34)CC2)c2ccccc21", "note": "[Example 134, 1′-{[6-Chloro-1-(3-fluorobenzyl)-1H-indol-3-yl]carbonyl}-3H-spiro[2-benzofuran-1,4′-piperidin]-3-one]", "Ki": 1}, {"smiles": "COc1ccc2c(c1)C(=O)OC21CCN(C(=O)c2c(C)n(Cc3ccccc3)c3ccccc23)CC1", "note": "[Example 13, 1′-[(1-benzyl-2-methyl-1H-indol-3-yl)carbonyl]-5-methoxy-3H-spiro[2-benzofuran-1,4′-piperidin]-3-one]", "Ki": 9.5}, {"smiles": "CN1CCN(C(=O)Cn2cc(C(=O)N3CCC4(CC3)OCc3ccccc34)c3ccc(Cl)cc32)CC1", "note": "[Example 212, 1′-({6-Chloro-1-[2-(4-methylpiperazin-1-yl)-2-oxoethyl]-1H-indol-3-yl}carbonyl)-3H-spiro[2-benzofuran-1,4′-piperidine]]", "Ki": 1.2}, {"smiles": "Cc1c(C(=O)N2CCC3(CC2)CNc2ccccc23)c2ccccc2n1Cc1ccccc1", "note": "[Example 9, 1′-[(1-benzyl-2-methyl-1H-indol-3-yl)carbonyl]-1,2-dihydrospiro[indole-3,4′-piperidine]]", "Ki": 9.7}, {"smiles": "O=C1OC2(CCN(C(=O)c3c[nH]c4cc(Cl)ccc34)CC2)c2ccc(F)cc21", "note": "[Example 19, 1′-[(6-chloro-1H-indol-3-yl)carbonyl]-5-fluoro-3H-spiro[2-benzofuran-1,4′-piperidin]-3-one]", "Ki": 6.8}, {"smiles": "O=C1OC2(CCN(C(=O)c3c[nH]c4cc(Cl)ccc34)CC2)c2cc(Cl)ccc21", "note": "[Example 20, 6-chloro-1′-[(6-chloro-1H-indol-3-yl)carbonyl]-3H-spiro[2-benzofuran-1,4′-piperidin]-3-one]", "Ki": 15.8}, {"smiles": "CCN(CC)C(=O)Cn1cc(C(=O)N2CCC3(CC2)OC(=O)c2ccccc23)c2ccccc21", "note": "[Example 203, N,N-Diethyl-2-{3-[(3-oxo-1′H,3H-spiro[2-benzofuran-1,4′-piperidin]-1′-yl)carbonyl]-1H-indol-1-yl}acetamide]", "Ki": 11.7}, {"smiles": "Cc1cc(Cn2cc(C(=O)N3CCC4(CC3)OC(=O)c3cc(F)ccc34)c3ccc(Cl)cc32)nn1C", "note": "[Example 185, 1′-({6-Chloro-1-[(1,5-dimethyl-1H-pyrazol-3-yl)methyl]-1H-indol-3-yl}carbonyl)-5-fluoro-3H-spiro[2-benzofuran-1,4′-piperidin]-3-one]", "Ki": 2.2}, {"smiles": "O=C1OC2(CCN(C(=O)c3cn(Cc4cccc(F)c4)c4cc(Cl)ccc34)CC2)c2ccc(F)cc21", "note": "[Example 143, 1′-{[6-Chloro-1-(3-fluorobenzyl)-1H-indol-3-yl]carbonyl}-5-fluoro-3H-spiro[2-benzofuran-1,4′-piperidin]-3-one]", "Ki": 1}, {"smiles": "O=C(Cn1cc(C(=O)N2CCC3(CC2)OCc2ccccc23)c2ccc(Cl)cc21)N1CCOCC1", "note": "[Example 205, 1′-{[6-Chloro-1-(2-morpholin-4-yl-2-oxoethyl)-1H-indol-3-yl]carbonyl}-3H-spiro[2-benzofuran-1,4′-piperidine]]", "Ki": 1}, {"smiles": "Cc1cc(Cn2cc(C(=O)N3CCC4(CC3)OC(=O)c3cc(F)ccc34)c3ccc(Cl)cc32)c(Cl)nn1", "note": "[Example 165, 1′-({6-Chloro-1-[(3-chloro-6-methylpyridazin-4-yl)methyl]-1H-indol-3-yl}carbonyl)-5-fluoro-3H-spiro[2-benzofuran-1,4′-piperidin]-3-one]", "Ki": 4.3}, {"smiles": "CCN(CC)C(=O)Cn1cc(C(=O)N2CCC3(CC2)OCc2ccccc23)c2ccc(Cl)cc21", "note": "[Example 207, 2-[6-Chloro-3-(1′H,3H-spiro[2-benzofuran-1,4′-piperidin]-1′-ylcarbonyl)-1H-indol-1-yl]-N,N-diethylacetamide]", "Ki": 1.1}, {"smiles": "O=C1OC2(CCN(C(=O)c3cn(Cc4ccc(Cl)nc4)c4cc(Cl)ccc34)CC2)c2ccc(F)cc21", "note": "[Example 164, 1′-({6-Chloro-1-[(6-chloropyridin-3-yl)methyl]-1H-indol-3-yl}carbonyl)-5-fluoro-3H-spiro[2-benzofuran-1,4′-piperidin]-3-one]", "Ki": 2.9}, {"smiles": "CC(C)(C)OC(=O)Cn1cc(C(=O)N2CCC3(CC2)OCc2ccccc23)c2ccc(Cl)cc21", "note": "[Example 209, tert-Butyl[6-chloro-3-(1′H,3H-spiro[2-benzofuran-1,4′-piperidin]-1′-ylcarbonyl)-1H-indol-1-yl]acetate]", "Ki": 1}, {"smiles": "Cc1c(C(=O)N2CCC3(CC2)OC(=O)c2ccccc23)c2ccccc2n1Cc1ccccc1", "note": "[Example 126, 1′-[(1-Benzyl-2-methyl-1H-indol-3-yl)carbonyl]-3H-spiro[2-benzofuran-1,4′-piperidin]-3-one]", "Ki": 3}, {"smiles": "Cc1c(C(=O)N2CCC3(CC2)OCc2ccccc23)c2ccccc2n1Cc1ccccc1Cl", "note": "[Example 53, 1′-{[1-(2-chlorobenzyl)-2-methyl-1H-indol-3-yl]carbonyl}-3H-spiro[2-benzofuran-1,4′-piperidine]]", "Ki": 1.7}]}]}
